Literature values, collected in patent US20160270390A1, “POLYMERIC FILM FOR AG[…] STORAGE, […] THEREFROM AND RELATED METHODS OF AG[…] STORAGE” (priority 2012, published 2016).

System: insect pests
Conditions: Zimbabwe, grain damage of 92% reported due to insect pests

SMILES: CCOC(=O)CC(SP(=S)(OC)OC)C(=O)OCC (stereo not shown) [malthion]
- reduction of grain damage in stored maize: 10%
